# Values of other authors as cited in paper PMC13050480, “Preclinical Development of GT-14, a Novel Inhibitor of Gαi2 Protein: Comprehensive Evaluation of Physicochemical, Metabolic Characteristics and Tissue Distribution” (The AAPS journal, 2025).
# Columns and labels:
# [1] = cited from earlier work
# albumin = test system: albumin; parameters: method as in PMID 27106175; details: cited from earlier work
# α1-acid glycoprotein = test system: α1-acid glycoprotein; parameters: method as in PMID 27106175; details: cited from earlier work
compound,measurement,setting,value
C[C@]12CC[C@H](O)CC1=CC[C@@H]1[C@@H]2CC[C@]2(C)C(c3cccnc3)=CC[C@@H]12 [Abiraterone],volume of distribution (Vd),[1],~ 5630 L
same,protein-bound to albumin,albumin,95.6–99.9%
same,protein-bound to α1-acid glycoprotein,α1-acid glycoprotein,89.4–95.6%
CC(O)(CS(=O)(=O)c1ccc(F)cc1)C(=O)Nc1ccc(C#N)c(C(F)(F)F)c1 (stereo not shown) [Bicalutamide],half-life,[1],25 to 30 h
same,oral bioavailability,[1],high oral bioavailability
same,tissue distribution of [3H]-Bicalutamide,[1],"preferential accumulation in the prostate, pituitary gland, and seminal vesicles, with limited brain penetration"
CNC(=O)c1ccc(N2C(=S)N(c3ccc(C#N)c(C(F)(F)F)c3)C(=O)C2(C)C)cc1F [Enzalutamide],apparent oral volume of distribution (Vd/F),[1],around 110 L
